Read-outs that look alike come from different tables or passages of the source. Residues, ends and D or L forms follow the SMILES beside them.
Columns and labels:
HLA-A*0201 [1] = target: T1, HLA-A*0201 (Homo sapiens, UniProt P04439, D140Y/D185E/D98H/E176V/E277Q/G131W/G231S/I119V/I121R/I166T/I218V/L300P/L318F/N151K/N90K/P208A/P217A/Q86G/Q94H/R138H/R169H/T345S); test: iTOPIA EDS MHC peptide binding assay; conditions: HLA-A*0201 monomer, relative to positive control peptide, 21° C. for 18 h
From the text: MHC peptide binding assay using iTOPIA EDS
Microtiter 96 well plates containing HLA class I MHC monomer loaded with the human β2-microglobulin and a “placeholder” peptide were used to evaluate peptide binding, affinity, and off-rate.
The 502 nectin4 nonapeptides were first evaluated for their ability to bind to each MHC molecule in the peptide binding assay. In this assay, the placeholder peptides were stripped from the MHC class I monomer complexes coated on plastic, which leaves the MHC class I heavy chain available as a binding partner for candidate peptides in the presence of human β2-microglobulin.
Peptide binding was performed at 21° C. for 18 h. Revelation was done using an anti HLA-ABC-FITC mAb that binds to refolded MHC complex conformation. The relative fluorescent intensity was read using a fluorimeter (Molecular Devices, SpectraMax Gemini, Sunnyvale, Calif., USA).
Peptides with a binding>30% of the positive control peptide were selected as “binder” and subsequently analyzed for affinity (ED50) and off-rate (T1/2).

HLA-A*0201 [2] = target: T1, HLA-A*0201; test: biochemical; format: binding
HLA-A*0201 [3] = target: T1, HLA-A*0201; test: iScore calculation (iTOPIA system software); conditions: multiparametric score of binding, off-rate and affinity
[4] = target: T2, HLA A*0201 on CEM.T2 cell line (Homo sapiens, UniProt P04439, D140Y/D185E/D98H/E176V/E277Q/G131W/G231S/I119V/I121R/I166T/I218V/L300P/L318F/N151K/N90K/P208A/P217A/Q86G/Q94H/R138H/R169H/T345S); test: Cellular binding assay, HLA stabilization on CEM.T2 cells; format: cell-based; conditions: for CEM.T2 % Binding: 100 μM peptide, 37° C. for 4 h, FACS anti HLA-A2, relative to HBV positive control peptide
T2 construct: This cell line expresses HLA A*0201 but is deficient for TAP transporter; endogenous in cells; host or cells: CEM.T2 (T2) cell line
Experimental: The CEM.T2 cell line (T2) is defective in the processing of proteins for presentation by MHC class 1 molecules. This cell line expresses HLA A*0201 but is deficient for TAP transporter. T2 is classically used to assess the Peptide/HLA-A*0201 Complex Stability[H. W. Nijman et al., 1993]
For HLA-A2*0201 stabilization, T2 cells (2×10^5/well) were incubated in serum-free RPMI (Gibco®-France) with 100 μM of selected peptide, at 37° C. for 4 h. Cells were washed two times with PBS supplemented with 1% BSA and stained with fluorescein isothiocyanate-conjugated anti HLA-A2 (Clone BB7.2) (BD Bioscience Pharmingen-France-) at 4° C. for 45 min. After 3 washes, cells were fixed in PBS supplemented with 2% paraformaldehyde and analyzed by FACS (FACScan, BD Bioscience). The percentage of peptide binding was calculated as follows: % Binding={(MFI peptide sample−MFI Neg control)/(MFI Pos control−MFI Neg control)}×100
Negative control was done without peptide.

[5] = target: T2, HLA A*0201 on CEM.T2 cell line; test: Cellular dissociation assay on CEM.T2 cells; format: cell-based; conditions: after Brefeldin A 1 h and 3 h in serum-free RPMI at 37° C. (4 h)
Experimental: Cellular Dissociation Assay
After HLA-A2*0201 stabilization with peptides at 37° C. for 4 h, T2 cells were incubated for 1 h, in serum-free RPMI containing Brefeldin A (10 μg/ml), an inhibitor of the transport of secretory and lysosomal proteins [G. J. Strous et al., 1993]. After 3 washes, T2 cells were incubated for 3 h in serum-free RPMI at 37° C. Binding was then measured by FACS and after 4 h incubation. Percentage of Residual Binding (% RB) was calculated as follows: […]

[6] = peptide concentration giving 50% of optimal binding, 10^−4 to 10^−9 M, 21° C. for 18 h, read-out: Affinity (ED50)

For `CC(C)C[C@H](NC(=O)[C@H](CS)NC(=O)[C@H](Cc1ccccc1)NC(=O)[C@H](CC(C)C)NC(=O)[C@@H](N)CC(C)C)C(=O)N[C@@H](CC(C)C)C(=O)N[C@H](C(=O)N[C@H](C(=O)N[C@H](C(=O)O)C(C)C)C(C)C)C(C)C` [Peptide 359] (H-LLFCLLVVV-OH; N-terminus and C-terminus assumed), the “% Binding” value (HLA-A*0201 [1]) was 67%, the EC50 (HLA-A*0201 [2]; [6]) was 500 nM and the iScore (HLA-A*0201 [3]) was 0.674. The “CEM.T2 % Binding” value [4] was 7% and the “CEM.T2 % Residual Binding” value [5] was 23%.
With `CC(C)C[C@H](NC(=O)[C@@H](N)Cc1ccccc1)C(=O)N[C@@H](C)C(=O)N[C@@H](CCC(=O)O)C(=O)N[C@@H](C)C(=O)N[C@@H](CO)C(=O)N[C@H](C(=O)N[C@@H](CCCNC(=N)N)C(=O)NCC(=O)O)C(C)C` [Peptide 244] (H-FLAEASVRG-OH; N-terminus and C-terminus assumed) the “% Binding” value (HLA-A*0201 [1]) was 78%, the EC50 (HLA-A*0201 [2]; [6]) was 700 nM and the iScore (HLA-A*0201 [3]) was 0.533. For the same compound, the “CEM.T2 % Binding” value [4] was 12% and the “CEM.T2 % Residual Binding” value [5] was 0%.
For `CC(C)C[C@H](N)C(=O)N[C@H](C(=O)N[C@@H](CO)C(=O)N[C@@H](C)C(=O)N[C@@H](CO)C(=O)N[C@H](C(=O)N[C@H](C(=O)N[C@H](C(=O)N[C@H](C(=O)O)C(C)C)C(C)C)C(C)C)C(C)C)C(C)C` [Peptide 345] (H-LVSASVVVV-OH; N-terminus and C-terminus assumed), the “% Binding” value (HLA-A*0201 [1]) was 51%, the EC50 (HLA-A*0201 [2]; [6]) was 60 nM and the iScore (HLA-A*0201 [3]) was 0.626. For the same compound, the “CEM.T2 % Binding” value [4] was 11% and the “CEM.T2 % Residual Binding” value [5] was 0%.
With `CC(C)C[C@H](NC(=O)[C@H](C)NC(=O)[C@H](C)N)C(=O)N[C@@H](CC(C)C)C(=O)N[C@@H](Cc1ccccc1)C(=O)N[C@@H](CS)C(=O)N[C@@H](CC(C)C)C(=O)N[C@@H](CC(C)C)C(=O)N[C@H](C(=O)O)C(C)C` [Peptide 357] (H-AALLFCLLV-OH; N-terminus and C-terminus assumed) the “% Binding” value (HLA-A*0201 [1]) was 56%, the EC50 (HLA-A*0201 [2]; [6]) was 100 nM and the iScore (HLA-A*0201 [3]) was 0.619. For the same compound, the “CEM.T2 % Binding” value [4] was 15% and the “CEM.T2 % Residual Binding” value [5] was 18%.
`CC(C)C[C@H](NC(=O)[C@H](CCCNC(=N)N)NC(=O)[C@H](C)NC(=O)[C@H](CCC(N)=O)NC(=O)[C@@H](N)Cc1ccccc1)C(=O)N[C@@H](CCCNC(=N)N)C(=O)N[C@@H](CC(C)C)C(=O)N[C@@H](CCCNC(=N)N)C(=O)N[C@H](C(=O)O)C(C)C` [Peptide 137] (H-FQARLRLRV-OH; N-terminus and C-terminus assumed) was tested, and the “% Binding” value (HLA-A*0201 [1]) was 69%, the iScore (HLA-A*0201 [3]) was 0.66 and the “CEM.T2 % Binding” value [4] was 30%. For the same compound, the “CEM.T2 % Residual Binding” value [5] was 72%.
`CC[C@H](C)[C@H](NC(=O)[C@@H](NC(=O)CNC(=O)[C@@H](NC(=O)[C@@H](NC(=O)[C@@H](N)C(C)C)C(C)C)C(C)C)C(C)C)C(=O)N[C@@H](C)C(=O)N[C@@H](C)C(=O)N[C@@H](CC(C)C)C(=O)O` [Peptide 351, VVVGVIAAL] (H-VVVGVIAAL-OH; N-terminus and C-terminus assumed) was tested, and the “% Binding” value (HLA-A*0201 [1]) was 58%, the EC50 (HLA-A*0201 [2]; [6]) was 30 nM and the iScore (HLA-A*0201 [3]) was 0.784.
“122: nectin4 nonapeptide with a low iScore; the number represents where the peptide starts in the protein sequence (EGEYECRVS; UniProt Q96NY8 122-130, looked up, fragment) [Peptide 122]” was tested, and the iScore (HLA-A*0201 [3]) was “low” and the “HLA-A*0201 class I level on T2 cells” value ([4]; flow cytometry, FIG. 3A and 3B) was “does not increase HLA level on T2 cells”.
For `CC(C)C[C@H](NC(=O)CNC(=O)[C@H](Cc1ccc(O)cc1)NC(=O)[C@H](CCCCN)NC(=O)[C@H](CO)NC(=O)[C@H](Cc1c[nH]cn1)NC(=O)[C@H](CC(C)C)NC(=O)[C@H](CC(C)C)NC(=O)[C@H](C)N)C(=O)O` [Peptide 80] (H-ALLHSKYGL-OH; N-terminus and C-terminus assumed), the “% Binding” value (HLA-A*0201 [1]) was 87%, the EC50 (HLA-A*0201 [2]; FIG. 2A, peptide concentration 10^−4 to 10^−9 M, read-out: estimated dose to reach 50% maximal binding (ED50)) was about 100 nM and the EC50 (HLA-A*0201 [2]; [6]) was 1000 nM. The iScore (HLA-A*0201 [3]) was 0.815.

From patent publication US9266922B2, “Antigen peptide and uses thereof” (priority 2011, dated 2016)
